In patent US8217085B2 (priority 2009, dated 2012):
Like-named read-outs stand apart in the source and are kept apart here.

What was measured:
[1] = system: ATCC strain 43300 Staphylococcus aureus; assay type: cell-based
Description: (§1) No colonies were observed, indicating total kill.
as §1

[2] = room temperature; cited from earlier work
[3] = system: ATCC strain 43300 Staphylococcus aureus; conditions: for average log reduction in cfu/ml: 48 hours; for Log reduction in cfu/ml: 120 hours
Description: This is the MIC for oxacillin and methicillin for this strain of bacteria.
USP<51> Antimicrobial Effectiveness protocol was used as the template experimental paradigm. […] All concentrations were plated out to the 10^−7 dilutionsto ascertain cfu/ml. […] This concentration is the industry standard for determining MRSA resistance in clinical applications.
Material was calculated on a 10 ml volume. Sterile oxacillin or methicillin was added to each experimental condition daily at 300 μl from a 30 mg/10 ml concentration giving it an initial final concentration of 6 μg/ml.
All tubes were inoculated with a dilution of MRSA giving a final level of colony forming units of 2.13×10^6/ml (Log=6.3). The tubes were incubated at 25° C. and mixed periodically. Plating was done at 24 hours, 48 hours and 5 days. Each condition was plated by diluting 1 ml of growth material into 9 ml of MLB diluent broth. This mixture was serial diluted down to 10^−7, and 1 ml placed in a sterile petri dish at each dilution point. 20 mls of TSA was added to each dilution, swirled and allowed to solidify. All dilutions were placed in a 35° C. incubator for 24 hours. Bacterial colonies on each plate were counted and colony counts changed into log format. A positive and negative control was ascertained.

[4] = system: ATCC strain 43300 Staphylococcus aureus; test: Survival of MRSA in MSM alone, 24 and 48 hours (USP<51> Antimicrobial Effectiveness template); conditions: 5-16% MSM alone, 24 or 48 hour time point
Description: USP<51> Antimicrobial Effectiveness protocol was used as the template experimental paradigm. […] All concentrations were plated out to the 10^−7 dilutionsto ascertain cfu/ml.
Material was calculated on a 10 ml volume.
All tubes were inoculated with a dilution of MRSA giving a final level of colony forming units of 2.0×10^5/ml (Log=5.23). The tubes were incubated at 25° C. and mixed periodically. Plating was done at 24 and 48 hours. Each condition was plated by diluting 1 ml of growth material into 9 ml of MLB diluent broth. This mixture was serial diluted down to 10^−7, and 1 ml placed in a sterile petri dish at each dilution point. 20 mls of TSA was added to each dilution, swirled and allowed to solidify. All dilutions were placed in a 35° C. incubator for 24 hours. Bacterial colonies on each plate were counted and colony counts changed into log format. A positive and negative control was ascertained.

Question: With `CS(C)(=O)=O` [MSM, methylsulfonylmethane] as the compound, how does the “recovery of MRSA after enrichment” value ([1]; 11% MSM, 60 μg/ml oxacillin, 96 hours) read?
Answer: Its value is “total kill”.

Question: And the “recovery of MRSA after enrichment” value ([1]; 13% MSM, 60 μg/ml oxacillin, 120 hours)?
Answer: Its value is “total kill”.

Question: What about the “recovery of MRSA after enrichment” value ([1]; 14% MSM, 60 μg/ml oxacillin, 96 hours) of the same compound?
Answer: Its value is “total kill”.

Question: And the “recovery of MRSA after enrichment” value ([1]; 15% MSM, 30 μg/ml oxacillin, 120 hours)?
Answer: Its value is “total kill”.

Question: What about the “recovery of MRSA after enrichment” value ([1]; 15% MSM, 60 μg/ml oxacillin, 72 hours) of the same compound?
Answer: The value was “total kill”.

Question: And the “recovery of MRSA after enrichment” value ([1]; 16% MSM, 60 μg/ml oxacillin, 120 hours)?
Answer: The value was “total kill”.

Question: What about the water solubility [2] of the same compound?
Answer: The water solubility was ≥ 20%.

Question: And the “average log reduction in cfu/ml” value ([3]; initial 5% MSM, 6 μg/ml methicillin)?
Answer: Its value is 2.7 log.

Question: And the “average log reduction in cfu/ml” value ([3]; initial 8% MSM, 6 μg/ml oxacillin)?
Answer: Its value is 2.7 log.

Question: And the “Log reduction in cfu/ml” value ([3]; initial 13-16% MSM, 6 μg/ml methicillin)?
Answer: Its value is ~3.5 log.

Question: What about the “Log reduction in cfu/ml” value ([3]; initial 14-16% MSM, 6 μg/ml oxacillin) of the same compound?
Answer: Its value is ~3.3 log.

Question: What about the “average log reduction in cfu/ml” value ([3]; initial 16% MSM, 6 μg/ml methicillin) of the same compound?
Answer: Its value is 2.1 log.

Question: And the “average log reduction in cfu/ml” value ([3]; initial 16% MSM, 6 μg/ml oxacillin)?
Answer: The value was 2.1 log.

Question: What about the effect on survival [4] of the same compound?
Answer: Its effect on survival is “none of the concentrations of MSM tested had any effect on the survival”.
